For test [1], the system named is CD-1 mice. On the set-up: method as in PMID 25769232, PMID 25987201. The settings on record: ED50 + SEM, data elaborated from ref [33],[34]; cited from earlier work.
The test system of test [2] is CD-1 mice. The arrangement: method as in PMID 25769232, PMID 25987201. As to conditions: ED50 + SEM, data elaborated from ref [33],[34]; cited from earlier work. The source holds these as a separate data set.
The test system of test [3] is CD-1 mice. On the set-up: method as in PMID 25769232, PMID 25987201. The settings on record: ED50 + SEM, data elaborated from ref [33],[34]; cited from earlier work. This is another data set of the same source.
Another test has as its target T1, human CB1 receptors (Homo sapiens, UniProt P21554).
T1 construct: host or cells: CHO cells
The arrangement: method as in PMID 27527584, PMID 25769232. The settings on record: read-out: hCB1 CHO Cells IC50; cyclic AMP experiments; mean ± SEM; data elaborated from ref [15],[33]; cited from earlier work.

The target of a further test is T2, mouse CB2 receptors (Mus musculus, UniProt P47936).
T2 construct: membranes from the mouse brain and spleen were used, respectively; from tissue; host or cells: mouse spleen membranes, CD-1 mice
The arrangement: method as in PMID 27527584, PMID 25769232. The settings on record: read-out: Mouse Spleen Membranes CB2 Ki; [3H]-CP-55,940 competition binding; mean ± SEM; data elaborated from ref [15],[33]; cited from earlier work.

Test [4] deals with CD-1 mice. Put plainly: Tail pinch test (acute mechanical nociception). Format: in vivo, mouse. As for the experimental part:
The motor responses of the animal to different visual and acoustic stimuli were evaluated according to the procedure described in our previous studies. To reduce the number of animals used, mice were evaluated in functional observational tests carried out in a consecutive manner according to the following time scheme: Observation of visual object and acoustic responses and breath rate were measured at 0, 10, 30, 60, 120, 180, 240, and 300 min after injections. Visual placing response was measured at 0, 15, 35, 70, 125, 185, 245, and 305 min after injection. Core temperature was measured at 25, 45, 85, 140, 200, 260, and 320 min after injection. The tail pinch test was measured at 35, 55, 90, 145, 205, 265, and 325 min after injection, and the valuation of number of steps in the drag test was measured at 45, 75, 105, 160, 220, 280, and 340 min after injection.
The tail pinch test is used for evaluating acute mechanical nociception. A special rigid probe connected to a digital dynamometer (ZP-50N, 441-8077, Toyohashi, Aichi, Japan) was gently placed on the tail (in the distal portion), and progressive pressure was applied. When the […] flicked its tail, the pressure was stopped, and the digital instrument saved the maximum peak of weight supported (g/force). A cut-off (500 g/force) was set to avoid tissue damage. The test was repeated three times, and the final value was calculated with the average of three obtained scores.
Data are expressed in arbitrary units (visual objects and acoustic responses) and percentage of baseline (visual placing response, breath rate, and drag test). Core temperature values were expressed as the difference between control temperature (before injection) and temperature following drug administration (Δ °C). Antinociception (tail pinch tests) was calculated as percentage of maximal possible effect:EMax% = [(test − control latency)/(cut off time − control)] × 100
All data are shown as mean ± SEM of 8 independent experimental replications. […] ED50 (dose of agonist to obtain 50% of the overall mean effect) values were calculated by non-linear regression analysis of dose–response data performed using Prism software (GraphPad Prism, San Diego, CA, USA). The calculation of JWH-018 ED50 values was based on the results of previous studies. Curves have been compared, when possible, performing the F test (curve comparison). All statistical analysis was performed using the program Prism 8.0 software (GraphPad Prism, San Diego, CA, USA).

In test [5] the test system is CD-1 mice. The experiment in a line: Breath rate evaluation. Format: in vivo, mouse.
In a further test the target is T3, mouse CB1 receptors (Mus musculus, UniProt P47746).
T3 construct: membranes from the mouse brain and spleen were used, respectively; from tissue
The experiment in a line: [3H]-CP-55,940 competition binding, mouse brain (cortex) membranes. The procedure:
Following excision from mice, tissues were suspended in 50 mM Tris HCl, pH 7.4, at 4 °C. The mouse brain and spleen tissues were homogenized with a Polytron and subsequently centrifuged for 10 min at 2000× g. The resulting supernatants were filtered and centrifuged for 20 min at 40,000× g, and the pellets were used for competition binding experiments.
Competition binding experiments were carried out by incubating 0.5 nM [3H]-CP-55,940 (Perkin Elmer Life and Analytical Sciences, Waltham, MA, USA) and different concentrations of the tested compounds for 90 or 60 min at 30 °C for CB1 or CB2 receptors, respectively. […] Non-specific binding was determined in the presence of 1 μM WIN 55,212-2 [92]. Bound and free radioactivity were separated by filtering the assay mixture through Whatman GF/C glass fiber filters using a Brandel cell harvester (Brandel Instruments, Unterföhring, Germany). The filter-bound radioactivity was counted using a Packard Tri Carb 2810 TR scintillation counter (Perkin Elmer Life and Analytical Sciences, Waltham, MA, USA).
The protein concentration was determined according to a Bio-Rad method with bovine serum albumin as a reference standard. Inhibitory binding constants, Ki, were calculated from the IC50 values according to the Cheng and Prusoff equation:Ki = IC50/(1 + [C*]/KD*) where [C*] is the concentration of the radioligand and KD* its dissociation constant. […]

Test [6] has as its system CD-1 mice. Put plainly: Visual object response test. Format: in vivo, mouse.
Setting [7] is: 0.01–30 mg/kg i.p., monitored over 5 h.
Setting [8] is: Mus musculus, ip, mice, ED50 + SEM.

Each structure is given as a SMILES string.

T3 sequence (P47746 whole entry): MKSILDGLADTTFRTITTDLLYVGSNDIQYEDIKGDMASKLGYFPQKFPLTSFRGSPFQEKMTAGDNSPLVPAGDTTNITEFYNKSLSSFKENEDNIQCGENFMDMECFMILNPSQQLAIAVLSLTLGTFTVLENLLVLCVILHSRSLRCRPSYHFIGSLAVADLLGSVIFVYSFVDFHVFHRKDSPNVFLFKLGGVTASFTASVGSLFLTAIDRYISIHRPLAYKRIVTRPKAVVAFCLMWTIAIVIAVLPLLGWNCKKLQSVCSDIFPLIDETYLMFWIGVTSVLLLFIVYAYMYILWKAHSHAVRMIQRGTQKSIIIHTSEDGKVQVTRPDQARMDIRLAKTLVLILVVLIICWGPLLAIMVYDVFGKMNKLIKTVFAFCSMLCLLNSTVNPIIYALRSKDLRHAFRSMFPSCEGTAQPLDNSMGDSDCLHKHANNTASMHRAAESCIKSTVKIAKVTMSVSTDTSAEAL
T1 sequence (P21554 whole entry): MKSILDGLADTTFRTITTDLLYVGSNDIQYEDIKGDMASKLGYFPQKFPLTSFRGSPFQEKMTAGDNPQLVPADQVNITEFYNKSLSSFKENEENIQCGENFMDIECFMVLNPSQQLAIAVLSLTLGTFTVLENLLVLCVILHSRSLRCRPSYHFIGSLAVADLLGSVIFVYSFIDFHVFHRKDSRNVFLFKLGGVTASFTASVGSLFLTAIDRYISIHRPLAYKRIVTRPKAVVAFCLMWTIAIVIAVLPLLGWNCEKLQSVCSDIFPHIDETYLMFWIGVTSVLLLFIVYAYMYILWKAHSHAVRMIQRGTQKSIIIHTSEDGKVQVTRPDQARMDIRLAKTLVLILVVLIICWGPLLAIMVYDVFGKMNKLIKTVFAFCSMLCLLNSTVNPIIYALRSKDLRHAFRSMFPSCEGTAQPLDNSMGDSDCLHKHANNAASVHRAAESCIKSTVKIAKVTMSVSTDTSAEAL
T2 sequence (P47936 whole entry): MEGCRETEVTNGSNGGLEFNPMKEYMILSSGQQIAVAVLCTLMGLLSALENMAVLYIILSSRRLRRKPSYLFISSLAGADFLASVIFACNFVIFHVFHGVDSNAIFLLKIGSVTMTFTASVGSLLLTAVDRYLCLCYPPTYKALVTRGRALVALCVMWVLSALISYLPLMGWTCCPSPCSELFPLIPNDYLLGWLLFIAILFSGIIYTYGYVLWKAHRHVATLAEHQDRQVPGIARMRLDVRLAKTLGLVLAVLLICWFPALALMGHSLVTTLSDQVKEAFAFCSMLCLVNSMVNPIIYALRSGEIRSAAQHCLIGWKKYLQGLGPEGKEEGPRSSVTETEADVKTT

As for `CCCCCn1cc(C(=O)c2cccc3ccccc23)c2ccccc21` [JWH-018, 1-naphthalenyl(1-pentyl-1H-indol-3-yl)-methanone], in the test with CD-1 mice [1], the “ED50 Visual Object” value is 0.32 ± 0.06 mg/kg. Also, the “ED50 Visual Placing” value in the test on CD-1 mice [2] is 0.7 ± 0.06 mg/kg. Also, in the test on CD-1 mice [3], the “ED50 Drag Test” value is listed as 2.4 ± 0.12 mg/kg. In addition, the IC50 – broadly, the point on the concentration scale where inhibition reaches its midpoint – on human CB1 receptors is 13.7 ± 1.04 nM. For the same compound, the inhibition constant Ki (usually a dissociation constant, usually derived from enzyme kinetics or from competition with a known ligand) at mouse CB2 receptors was 7.13 ± 0.53 nM.

`CCCCCn1cc(Cc2cccc3ccccc23)c2ccccc21` [JWH-175, 3-(1-naphthalenylmethyl)-1-pentyl-1H-indole]: the “effect on threshold to acute mechanical pain stimulus (tail pinch)” value in the test with CD-1 mice [4] (setting [7]) was “dose-dependently increased the threshold to acute mechanical pain stimulus”. In addition, the median effective dose (ED50) (usually the dose at which the effect has come halfway, by size or by number of responders) with CD-1 mice [4] (setting [8]) came to 4 ± 0.12 mg/kg; with CD-1 mice [5] (setting [8]), 1.7 ± 0.15 mg/kg; in the test on CD-1 mice [6] (Mus musculus, ip, mice, ED50 + SEM, non-linear regression) it was 9.6 ± 0.02 mg/kg. Moreover, the “lowest dose from which increased pain threshold to acute mechanical stimulus was observed” value with CD-1 mice [4] (i.p.) came out at 0.1 mg/kg. Moreover, in the test on CD-1 mice [4] (maximum dose of 30 mg/kg i.p.), the “time of maximum analgesic effect (tail pinch)” value is 265 min. For the same compound, the “effect on breath rate” value in the test with CD-1 mice [5] (setting [7]) was “dose-dependently reduced the breath rate”. For the same compound, the “dose at which inhibitory effect on breath rate was significant” value with CD-1 mice [5] (i.p., after 120 min, persisted up to 5 h) was 0.1 mg/kg. On mouse CB1 receptors, this compound returned a Ki of 33.6 ± 2.4 nM. For the same compound, in the test with CD-1 mice [6] (setting [7]), the “effect on visual object response” value is listed as “dose-dependently reduced the visual object response”.

These data come from publication PMC9318133 (International Journal of Molecular Sciences, 2022).
